Where “and” joins values, the source holds several entries; their conditions need not be identical. Equal values may be shown once.
How the values were obtained:
[1] = test system: amyloid precursor protein (APP) proteolysis; experiment: Repressor Release Assay (RRA); format: cell-based; conditions: all compounds tested at 20 μg/mL; for fold induction at 20 µg/mL: read-out: RRA data: fold increase of APPI (luciferase activity over diluent control)
Protocol: The beta amyloid inhibitory activity of many of the compounds of the present invention has been determined using the Repressor Release Assay (RRA). See, Table 5 below. A compound is considered active in RRA if it leads to at least a 1.5 fold increase in luciferase activity at 20 μg/mL and is non-toxic.
The compounds generated as described in the Examples above are tested in the RRA in accordance with published techniques [Shuey, D. J., Sheiffele, P., Jones, D., Cockett, M. I., and Quinet, E. M. (1999), “Repressor release: a useful tool for monitoring amyloid precursor protein (APP) proteolysis in mammalian cells”, Society for Neuroscience Abstracts, Vol. 25, 29th Annual Meeting of Society for Neuroscience, Miami Beach, Fla., Oct. 23-28, 1999]. Briefly, this assay is performed as follows.
CHO-K1 cells are cultured in whole DMEM media (DMEM—High Glucose with 10% fetal bovine serum, 1% Non-essential Amino Acids, and 1% Penicillin-Streptomycin) at 37° C. with 5% CO2. Two million cells are plated into 10-cm dishes 24 hrs prior to transfection.
Transient transfections are completed as recommended by Gibco BRL using their Lipofectamine Plus® system. First, 6 μg of pRSVO-luc and 6 μg of APP-lacI construct DNA are added to 460 μL Opti-Mem transfection media and incubated with the 30 μL Plus® reagent for 15 minutes. Then, a lipid mixture of 40 μL Lipofectamine Plus® reagent and 460 μL Opti-Mem transfection media is incubated with the DNA-Plus reagent mixture for 15 minutes. During the DNA-lipid incubation, the CHO-K1 cells are washed once and covered in 5.0 mL DMEM media without Penicillin-Streptomycin. The DNA-lipid preparation is then layered onto these cells and incubated at 37° C. overnight.
One and one half million transfected cells per well (100 μL total volume) are plated into sterile, opaque Packard 96-well Cultur-Plates™ in clear DMEM whole media (DMEM—without phenol red) and incubated at 37° C. with 5% CO2 for 3-5 hours.
Compounds are diluted using two different protocols; one protocol is used for compounds supplied neat (weighed powder in vial) and the other protocol is used for compounds supplied in solution (20 mM in DMSO in 96-well plates). For both protocols, 25 mM Hepes and 25 mM Hepes/1% DMSO are prepared fresh to be used as diluent. The Hepes/DMSO is used as the diluent control on all experimental plates.
The following table depicts the steps for compound dilution (please note that the last step is the addition of compound to cells/media in tissue culture plate):
Because some compounds arrive in 96-well format at 20 mM, the following represents the protocol for their dilution (note that an average molecular weight of these compounds was used to calculate these dilutions and as above, the last step is the addition of compound to cells/media in tissue culture plate):
Once compounds are diluted, they are applied in duplicate on cells in tissue culture plates (prepared above). Cells are incubated with compound at 37° C. with 5% CO2 for an additional 36-48 hours.
Luciferase assays (the LucLite® reagent, Packard) are performed and are read on a Packard TopCount® instrument. Media is removed from each 96-well plate and replaced with 100 μL PBS per well (with Mg^2+ and Ca^2+). An equal volume (100 μL) of the LucLite® lysis/substrate buffer is added to each well and the plates are sealed and mixed in the dark on a rotary shaker for about 15 to about 30 minutes at room temperature. Luciferase readings are then taken on the TopCount® instrument. Measurements are expressed as relative light units (RLU) and are calculated and analyzed in the MS Excel® program as follows.
A compound is considered active in RRA if it leads to at least a 1.5 fold increase in luciferase activity at 20 μg/mL and is non-toxic, as determined by loss of signal (≦0.75 fold increase). Fold increase is the amount of luciferase activity (measured in relative light units) over diluent control. SEM represents the standard error of the mean for fold increase (not shown).

beta amyloid 42 = experiment: Aβ40/42 ELISA Assay, Aβ42; format: cell-based; conditions: CHO cells carrying the APP-REP-NL plasmid, 22 hours
Protocol: (§1) Compounds are diluted from DMSO stocks to 2 μM and below in a cell culture medium. Compounds are then applied to CHO cells carrying the APP-REP-NL plasmid [Sudhir et. al, J. Biolog. Chem. 267:25602-25608 (1992)] for a period of 22 hours. After the conditioning period, medium is collected, diluted in assay buffer containing protein, and samples, controls, and synthetic peptide standards are incubated on a prepared ELISA plate. Using a sandwich ELISA with antibodies specifically directed against the carboxyl terminus of beta amyloid 40 or 42 [analogous to the method reported by Haugabook et al., J. Neurosci. Methods 108:171-179 (2001) but using goat anti-mouse IgG1 (source: Southern Biotech) as the anchor, 6E10 as the capture antibody (Source: SENETEK), rabbit antiAβ40 and antiAβ42 (source: QCB) and APL-donkey anti-rabbit IgG (H+L, source: Southern Biotech) as the detection antibody], the effect of the compound treatment on the cellular production of extracellular beta amyloid is quantified. Cells treated with compound are subsequently incubated in cell culture medium containing […]. After a short incubation period, MTS/medium containing plates are read in a spectrophotometer to determine the extent to which compound toxicity affected the cell's metabolism and ability to synthesize beta amyloid. […]

beta amyloid 40 = experiment: Aβ40/42 ELISA Assay, Aβ40; format: cell-based; conditions: CHO cells carrying the APP-REP-NL plasmid, 22 hours
Protocol: as §1

[2] = Phase 1 and 2 dog liver microsome metabolism; format: in vitro ADME; conditions: liver microsomes, read-out: half-life (metabolic stability)
[3] = Phase 1 and 2 mouse liver microsome metabolism; format: in vitro ADME; conditions: liver microsomes, read-out: half-life (metabolic stability)
in vitro = conditions: rat, microsomes
[4] = Phase 1 and 2 human liver microsome metabolism; format: in vitro ADME; conditions: liver microsomes, read-out: half-life (metabolic stability)
[5] = Phase 1 and 2 rat liver microsome metabolism; format: in vitro ADME; conditions: liver microsomes, read-out: half-life (metabolic stability)
[6] = mouse, microsomes

Row | SMILES | RRA data: fold increase of APPI (luciferase activity over diluent control) [1] | fold induction at 20 µg/mL [1] | other results
1 | C[C@H](NC(=O)Cc1cc(F)cc(F)c1)C(=O)N[C@H](C(=O)OC(C)(C)C)c1ccccc1 [DAPT] | 18.5-28.1 fold increase |  | EC50 (beta amyloid 42): 128 nM; EC50 (beta amyloid 40): 171 nM
2 | C[C@H](CC(F)(F)F)[C@@H](CO)NS(=O)(=O)c1ccc(Cl)s1 [Example 1, 5-Chloro-N-[(1S,2R)-4,4,4-trifluoro-1-(hydroxymethyl)-2-methylbutyl]thiophene-2-sulfonamide] |  | 3.2 | half-life [2]: 31 min; half-life [3]: 10 min; half-life (in vitro): ~193 min; half-life [4]: 22 min; half-life [5]: 14 min; melting point: 132 to 133 °C and 136 to 137 °C
3 | CC[C@H](CC(F)(F)F)[C@@H](CO)NS(=O)(=O)c1ccc(Cl)s1 [Example 2, 5-Chloro-N-[(1S,2R)-2-ethyl-4,4,4-trifluoro-1-(hydroxymethyl)butyl]thiophene-2-sulfonamide] |  | 5.4 | melting point: 128 to 129 °C
4 | CC[C@H](CC(F)(F)F)[C@H](NS(=O)(=O)c1ccc(Cl)s1)C(C)O (stereo partly drawn) [Example 3, 5′-Chloro-N-[(1S,2R)-2-ethyl, 4,4,4-trifluoro-1-(1-hydroxyethyl)butyl]thiophene-2′-sulfonamide] | 4.3 fold increase |  | 
5 | O=S(=O)(NC(CO)C(C(F)(F)F)C(F)(F)F)c1ccc(Cl)s1 (stereo not shown) [Example 4, 5′-Chloro-N-[3,3,3-trifluoro-2-(trifluoromethyl)-1-(hydroxymethyl)propyl]thiophene-2′-sulfonamide] | 3.7 fold increase |  | 
6 | O=S(=O)(N[C@H](CO)C(C(F)(F)F)C(F)(F)F)c1ccc(Cl)s1 [Example 5, 5′-Chloro-N-[3,3,3-trifluoro-2-(trifluoromethyl)-1-S-(hydroxymethyl)propyl]thiophene-2′-sulfonamide] | 3.8 fold increase |  | half-life (metabolic stability) [6]: 46 min
7 | CC[C@@H](CC(F)(F)F)[C@H](CO)NS(=O)(=O)c1ccc(Cl)s1 [Example 6, 5-Chloro-N-[(1R,2S)-2-ethyl-4,4,4-trifluoro-1-(hydroxymethyl)butyl]thiophene-2-sulfonamide] |  | 4.2 | 
8 | O=S(=O)(NC(CO)CCC(F)(F)F)c1ccc(Cl)s1 (stereo not shown) [Example 7, 5-Chloro-N-[4,4,4-trifluoro-1-(hydroxymethyl)butyl]thiophene-2-sulfonamide] |  | 3.9 | 
9 | C[C@H](O)[C@@H](NS(=O)(=O)c1ccc(Cl)s1)[C@H](C)CC(F)(F)F [Example 8, 5-Chloro-N-{(1S,2R)-4,4,4-trifluoro-1-[(1S)-1-hydroxyethyl]-2-methylbutyl}thiophene-2-sulfonamide] |  | 2.8 | 
10 | C[C@H](CC(F)(F)F)[C@H](NS(=O)(=O)c1ccc(Cl)s1)[C@@H](C)O [Example 9, 5-Chloro-N-{(1S,2R)-4,4,4-trifluoro-1-[(1R)-1-hydroxyethyl]-2-methylbutyl}thiophene-2-sulfonamide] |  | 2.8 | 
11 | C[C@@H](CC(F)(F)F)[C@@H](CO)NS(=O)(=O)c1ccc(Cl)s1 [Example 10, 5-Chloro-N-[(1S,2S)-4,4,4-trifluoro-1-(hydroxymethyl)-2-methylbutyl]thiophene-2-sulfonamide] |  | 5.2 | melting point: 99 to 100 °C
12 | CC[C@@H](CC(F)(F)F)[C@@H](CO)NS(=O)(=O)c1sc2ccc(Cl)cc2c1C [Example 11, (2S,3S)-2-(5-Chloro-3-methylbenzo[b]thiophene-2-sulfonyl)-amido-5,5,5-trifluoro-3-ethyl-pentan-1-ol] | 4.2 fold increase |  | 
13 | Cc1nn(C)c(Cl)c1S(=O)(=O)N[C@H](CO)[C@H](CC(F)(F)F)c1ccccc1 [Example 12, (2S,3R)-2-(5-Chloro-1,3-dimethyl-1H-pyrazole-4-sulfonyl)-amido-5,5,5-trifluoro-3-phenyl-pentan-1-ol] | 1.6 fold increase |  | 
14 | O=S(=O)(NC(CO)C1CCC(F)(F)CC1)c1ccc(Cl)s1 (stereo not shown) [Example 14, 5-Chloro-N-[1-(4,4-difluorocyclohexyl)-2-hydroxyethyl]thiophene-2-sulfonamide] |  | 6.2 | 
15 | O=S(=O)(NC(CO)C1CC2C(C1)C2(F)F)c1ccc(Cl)s1 (stereo not shown) [Example 15, 5-Chloro-N-[1-(6,6-difluorobicyclo[3.1.0]hex-3-yl)-2-hydroxyethyl]thiophene-2-sulfonamide] |  | 4.7 | 
16 | C[C@H](CC(F)(F)F)[C@@H](C=O)NS(=O)(=O)c1ccc(Cl)s1 [Example 16, 5-Chloro-N-[(1S,2R)-4,4,4-trifluoro-1-formyl-2-methylbutyl]thiophene-2-sulfonamide] |  | 3.9 | 
17 | CC(=O)[C@@H](NS(=O)(=O)c1ccc(Cl)s1)[C@H](C)CC(F)(F)F [Example 17, N-[(1S,2R)-1-Acetyl-4,4,4-trifluoro-2-methylbutyl]-5-chlorothiophene-2-sulfonamide] |  | 3.6 | 
18 | C[C@H](CC(F)(F)F)[C@H](NS(=O)(=O)c1ccc(Cl)s1)C(C)(C)O [Example 18, 5-Chloro-N-[(1S,2R)-4,4,4-trifluoro-1-(1-hydroxy-1-methylethyl)-2-methylbutyl]thiophene-2-sulfonamide] |  | 2.9 | 
19 | O=S(=O)(NC(CO)CC(F)(F)F)c1ccc(Cl)s1 (stereo not shown) [Example 40, 5-chloro-(3,3,3-trifluoro-1-hydroxymethyl-propyl)-thiophene-2-sulfonamide] |  | 3.8 | 
20 | C[C@@H](O)[C@@H](NS(=O)(=O)c1ccc(Cl)s1)C(C(F)(F)F)C(F)(F)F [Example 41, 5-Chloro-N-[(1S)-3,3,3-trifluoro-1-[(1R)-1-hydroxyethyl]-2-(trifluoromethyl)propyl]thiophene-2-sulfonamide] |  | 6.2 | 

Source: US7858658B2, “Fluoro- and trifluoroalkyl-containing heterocyclic sulfonamide inhibitors of beta amyloid production and derivatives thereof” (Wyeth LLC, priority 2003, dated 2010)
